Source: patent publication US11439607B2 (Paracelsus Neuroscience I, LLC, priority 2016, dated 2022)
Where two headings read alike, the source gives them in different places.

Key:
Bennett model = Bennett model - Paw pressure test; assay type: in vivo, rodent; details: Senicapoc 100 mg/kg PO, 240 min after treatment
Method: (§1) Depending on the test, the percentage of activity was calculated from the mean value of the vehicle-treated animals and compared to naïve animals, control paw or cut-off value.

Formalin test = Formalin test - Score; assay type: in vivo, rodent; details: Senicapoc 100 mg/kg PO, 240 min after treatment
Method: as §1

μ-opioid receptors = target: T1, μ-opioid receptors (Homo sapiens, UniProt P35372); assay: Off target screen (CEREP panel) and dose response; assay type: binding
T1 construct: CEREP (contract screening)

κ-opioid receptors = target: T2, κ-opioid receptors (Homo sapiens, UniProt P41145); assay: Off target screen (CEREP panel) and dose response; assay type: binding
T2 construct: CEREP (contract screening)

Rat primary microglia [1] = assay: Microglial IL-1β release (LPS priming, BzATP); assay type: cell-based
Method: Rat primary microglia were primed with 3 EU/mL of ultra-pure Lipopolysaccharide (control standard endotoxin (CSE) Associates of Cape Cod, Falmouth, Mass.). […] Cell free supernatants were assayed for IL-1β using a custom rat cytokine assay (N451A-1; MesoScale Discovery, Rockville, Md.). IC50S were determined using Prism (Graphpad, San Diego, Calif.)
(§2) After 24 hours, media was assayed for nitrite (stable metabolite of NO). […] Primary rat cortical microglia were also treated with LPS (3 EU/ml, 3 hours) to stimulate the production of pro-IL-1β.

Healthy rats [2] = assay: Healthy rats - Tail flick test; assay type: in vivo; details: Senicapoc 100 mg/kg PO, 240 min after treatment
Method: as §1

TNBS model = assay: TNBS - Colorectal distension; assay type: in vivo, rodent; details: Senicapoc 100 mg/kg PO, 240 min after treatment
Method: as §1

[3] = rats, post dose; cited from earlier work
Acetic acid test = Acetic acid test - Abdominal cramps; assay type: in vivo, rodent; details: Senicapoc 100 mg/kg PO, 240 min after treatment
Method: as §1

melatonin 1A receptors = target: T3, melatonin 1A receptors (Homo sapiens, UniProt P48039); assay: Off target screen (CEREP panel) and dose response; assay type: binding
T3 construct: CEREP (contract screening)

Healthy rats [4] = assay: Healthy rats - Paw pressure test; assay type: in vivo; details: Senicapoc 100 mg/kg PO, 240 min after treatment
Method: as §1

KCa3.1 = target: T4, KCa3.1 (Rattus norvegicus, UniProt Q9QYW1); assay: Whole cell patch clamp of K+ currents in rat primary microglia; assay type: cell-based; details: read-out: IC50, inhibition of microglial K+ current
T4 construct: K^+ currents were recorded from primary microglia; endogenous in cells; host or cells: primary rat (cortical) microglia
Method: Primary rat microglia were plated at a density of 300,000/35 mm dish for 24 hours. Whole cell patch clamp recordings were performed using an EPC9 patch-clamp amplifier and PatchMaster software (HEKA Instruments Inc.). The cell's membrane potential was held at −60 mV. External solution contained (in mM): 140 NaCl, 4 KCl, […], 1.8 CaCl2, 10 HEPES, 10 Glucose, pH 7.4. Patch solution contained (in mM): 140 […], 11 EGTA, 2 MgCl2, 10 HEPES, pH 7.2. Drugs were applied by gravity and selected with a capillary tube placed in close proximity to the recording dish. BzATP (Sigma-Aldrich, St. Louis, Mo.) was applied for 10 seconds.
KCa3.1 is highly expressed on microglia in vitro (Kaushal et al., 2007). […] Some residual K^+ current still remained which was most likely not KCa3.1-sensitive (Kettenmann et al., 2011)

[5] = Plasma and brain free fraction by equilibrium dialysis; assay type: in vitro ADME, rat; set-up: dose or concentration left out as unconfirmed
Method: Briefly, naive plasma and brain tissues were homogenized in 3× and 4× w/v in homogenization buffer (50:30:20 H2O:IPA:DMS0), respectively. […] Following equilibration, the buffer sample was fortified with a fixed volume of blank tissue homogenate and the tissue sample was fortified with a fixed volume of buffer. Protein precipitation was performed with ice cold acetonitrile in the presence of an analytical internal standard. The supernatants were quantified for senicapoc using LC-MS/MS as described earlier.

Oxaliplatin model = assay: Oxaliplatin - Acetone test (reaction time); assay type: in vivo, rodent; details: Senicapoc 100 mg/kg PO, 240 min after treatment
Method: as §1

Kaolin model = assay: Kaolin - Gait score; assay type: in vivo, rodent; details: Senicapoc 100 mg/kg PO, 240 min after treatment
Method: as §1

Rat primary microglia [6] = assay: Microglial NO release (measurement of nitrite) after LPS; assay type: cell-based; details: 24 hours
Method: Next, 3 EU/ml of ultra-pure Lipopolysaccharide (CSE, Associates of Cape Cod) was added to induce iNOS expression and NO synthesis. After a total incubation time of 24 hours, media was collected, spun down to remove cells and assayed for nitrite (the stable breakdown product of NO) using Griess Reagent (Promega, Madison Wis.).
as §2

CCI rats = assay: Chronic constriction injury (CCI) model, von Frey paw withdrawal threshold; assay type: in vivo, rat; details: 4 hours after dosing
Method: Peripheral nerve injury was performed according to the method of Bennett and Xie (Bennett and Xie, 1988), with paw withdrawal thresholds to Von Frey filament stimulation measured as described previously (Chaplan et al., 1994; Tal and Bennett, 1994).
In the first cohort of nerve injured rats, hindpaw mechanical hypersensitivity was evident by day 7 and maintained for the duration of the experiment (see FIG. 4A). […] Experiments were run using a simple cross-over design. Tactile hypersensitivity of rats was evaluated one day prior to drug testing. Drugs were allowed to wash out for one week at which time the mechanical hypersensitivity was reassessed. Rats were then randomly re-assigned to groups prior to the next arm of the study being run. In the final arm, tissue was collected from 3 animals from each group immediately after behavioral assessment of allodynia. Dosing of drugs, assessment of mechanical thresholds and collection of tissues were performed by individual experimenters all blinded to treatments.
All CCI data are presented as mean+/−S.E.M. and were analyzed using ANOVA followed by Fisher's PLSD post-hoc analysis (StatView, Cary, N.C.) when appropriate.

[7] = full dose response curve, functional testing

T1 sequence (P35372 whole entry): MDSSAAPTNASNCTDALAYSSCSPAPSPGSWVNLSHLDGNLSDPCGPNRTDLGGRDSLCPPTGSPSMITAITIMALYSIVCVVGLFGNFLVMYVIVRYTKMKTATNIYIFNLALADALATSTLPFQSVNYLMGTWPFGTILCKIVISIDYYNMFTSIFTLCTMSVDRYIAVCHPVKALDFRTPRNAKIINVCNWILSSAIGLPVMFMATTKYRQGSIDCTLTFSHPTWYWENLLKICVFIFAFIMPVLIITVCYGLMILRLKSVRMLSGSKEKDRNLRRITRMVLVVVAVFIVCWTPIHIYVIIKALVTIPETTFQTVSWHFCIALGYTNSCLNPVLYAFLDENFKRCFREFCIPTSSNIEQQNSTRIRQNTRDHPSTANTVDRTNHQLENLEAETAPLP
T2 sequence (P41145 whole entry): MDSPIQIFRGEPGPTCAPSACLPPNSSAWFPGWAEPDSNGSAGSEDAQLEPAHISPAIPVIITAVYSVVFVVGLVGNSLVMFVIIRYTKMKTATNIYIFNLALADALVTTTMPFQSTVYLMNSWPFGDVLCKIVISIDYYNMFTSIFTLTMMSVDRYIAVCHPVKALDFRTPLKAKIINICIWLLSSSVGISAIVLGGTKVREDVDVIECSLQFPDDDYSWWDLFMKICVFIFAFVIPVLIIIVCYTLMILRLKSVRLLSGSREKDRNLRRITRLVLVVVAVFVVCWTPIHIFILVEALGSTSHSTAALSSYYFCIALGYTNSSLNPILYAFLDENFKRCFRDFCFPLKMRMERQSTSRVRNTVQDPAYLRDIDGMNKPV
T3 sequence (P48039 whole entry): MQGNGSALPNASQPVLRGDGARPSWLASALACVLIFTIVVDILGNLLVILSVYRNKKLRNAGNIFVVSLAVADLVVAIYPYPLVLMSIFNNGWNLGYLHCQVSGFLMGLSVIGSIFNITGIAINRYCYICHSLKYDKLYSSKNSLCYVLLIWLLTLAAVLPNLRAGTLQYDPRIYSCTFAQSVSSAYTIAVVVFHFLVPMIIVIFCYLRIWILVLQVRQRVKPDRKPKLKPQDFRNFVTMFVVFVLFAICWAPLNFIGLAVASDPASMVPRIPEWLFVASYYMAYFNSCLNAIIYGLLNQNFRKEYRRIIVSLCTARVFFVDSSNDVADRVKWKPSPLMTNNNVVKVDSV

NC(=O)C(c1ccccc1)(c1ccc(F)cc1)c1ccc(F)cc1 [Senicapoc]
% of activity vs. vehicle (Bennett model): 69%
% of activity vs. vehicle (Formalin test; early phase): 14%
% of activity vs. vehicle (Formalin test; late phase): 8%
inhibition at 10 µM (μ-opioid receptors; 10 μM): > 50%
IC50 (μ-opioid receptors; [7]): 12000 nM
inhibition at 10 µM (κ-opioid receptors; 10 μM): > 50%
IC50 (κ-opioid receptors; [7]): 19000 nM
IC50 (Rat primary microglia [1]; FIG. 2B legend, LPS 3EU/ml 24 hours, n=3, read-out: IC50, inhibition of IL-1β release from primary microglia (FIG. 2B legend)): 1.3 nM
IC50 (Rat primary microglia [1]; LPS 3 EU/ml priming, BzATP 1 mM, read-out: IC50, inhibition of IL-1β release from primary microglia): 15 nM
% of activity vs. vehicle (Healthy rats [2]): 9%
% of activity vs. vehicle (TNBS model): 50%
Tmax (time of maximum plasma concentration) [3]: 4 h
% of activity vs. vehicle (Acetic acid test): −32%
inhibition at 10 µM (melatonin 1A receptors; 10 μM): > 50%
IC50 (melatonin 1A receptors; [7]): 1700 nM
% of activity vs. vehicle (Healthy rats [4]): −12%
IC50 (KCa3.1): 10 nM
fraction unbound at 2.5 h ([5]; brain homogenate (4x w/v in homogenization buffer), rat brain homogenate, read-out: In vitro rat brain free fraction (UBBr)): 0.008
fraction unbound at 2.5 h ([5]; plasma (diluted 3x w/v in homogenization buffer), rat plasma, read-out: In vitro rat plasma free fraction (UBP)): 0.027
% of activity vs. vehicle (Oxaliplatin model): 68%
% of activity vs. vehicle (Kaolin model): 29%
EC50 (Rat primary microglia [6]; FIG. 2A legend, LPS 3EU/ml, n=3, read-out: EC50, inhibition of NO production (nitrite), representative experiment): 0.9 nM
IC50 (Rat primary microglia [6]; LPS 3 EU/ml, nitrite, read-out: IC50, inhibition of NO release from LPS-treated microglia (average)): 39 nM
Reversal of mechanical hypersensitivity (tactile allodynia) (CCI rats; 100 mg/kg p.o.): 48%
Effect on injury-induced nociceptive behaviors at the low doses (CCI rats; low doses (10, 30 mg/kg p.o.)): lack of significant effect
